# “Also recorded” adds a separate entry of the source.
# Key:
# U87R cells = assay: Subtractive/selective biopanning of Ph.D.-12 phage display library against U87R cells, sequencing of subclones; parameters: species or system human; conditions: given as n/100
# Description: The present inventors have earlier described an in vivo selection for a population of human glioma cells that were highly invasive (U87R). In order to isolate peptides that could bind specifically to these highly invasive glioma cells, a biopanning experiment using a combinatorial phage display library was employed. Initially subtractive biopanning was performed with the U87 cells that were non-invasive (U87T) followed by selective biopanning with the U87R cells to isolate a library of phage (FIG. 1A) that were confirmed to preferentially interact with U87R cells by whole-cell ELISA (FIG. 1B).
# Biopanning was performed as described in [61]. Subtraction cells (e.g. U87T) were released from tissue culture plastic with Puck's EDTA, and after washing with PBS, 1×10^7 cells were resuspended in 1% BSA in PBS with 1.5×10^11 pfu of Ph.D.-12 M13 Phage Library (New England Biolabs). The cells and phage were incubated in an eppendorf tube for 1 hour at room temperature with gentle shaking, before pelleting the cells and retaining the supernatant, which was transferred to a fresh tube with another aliquot of subtraction cells. The incubation and transfer of supernatant was performed three times, with the supernatant being transferred to an empty tube on the last round. Selection cells were released from tissue culture plastic with Puck's EDTA (e.g. U87R cells) and washed in PBS. 5×10^6 cells were resuspended in the 3× subtracted supernatant and incubated for 4 hours at 4° C. with slow shaking. The cell pellet was washed 5× in cold 1% BSA/0.1% Tween 20 in PBS five times, changing the tube after each wash. Bound phage were eluted by rocking the cells gently for 10 minutes at 4° C. in 1 mL of 0.2M Glycine-HCl pH 2.2 with 1 mg/mL BSA, and the supernatant was immediately neutralized with 150 μL of 1M Tris-HCl pH 9.1. The final library was amplified as per manufacturer's protocol.
# [1] = tested on: BTIC isolates (BTIC 12, 25, 42, 50); assay: Biopanning of phage display library against a mixture of BTIC isolates, sequencing of subclones; conditions: BTIC-binding phage subclones; given as n/50 subclones screened
# [2] = tested on: implanted GBM tumor from the BT025 cell line; assay: In vivo targeting of fluorescent peptide to implanted BT025 tumor, fluorescence microscopy of brain sections; parameters: species or system mice; conditions: for distribution of fluorescent peptide signal in brain sections: BT025 tumor; for localization of peptide conjugate in human GBM tissue in vivo (summary): intravenous administration, BT025 tumor (general statements also cover U87MG tumors)
# Description: (§1) In the studies shown in FIGS. 13A and 13B, brain tumors were implanted in mice with a patient-derived BTIC cell line BT025 identified as above by its binding to the 7A peptide. After tumor growth from the implanted cells, the tumors were removed, sectioned and stained for microscopic visualization. In the studies shown in FIGS. 14-19, a fluorescent peptide was administered intravenously, either by intracorotid injection or via tail vein into mice having an implanted GBM tumor from the BT025 cell line (FIGS. 14-17) or the U87MG cell line (FIGS. 18 and 19), and after localization of the peptide, the animal were sacrificed and their brain tumors removed for sectioning and visualization by fluorescence microscopy.
# The peptide was administered to the mouse via intracarotid injection and allowed to circulate for approximately half an hour to allow clearance of background signal before the mouse was sacrificed and the brain removed for imaging using an Olympus OV100 whole mouse imaging system. By non-magnified inspection, the large outgrowth of the tumor is obvious.
# FIGS. 14B and 14C are lower and higher magnification photomicrographs of a thin section taken from the brain in FIG. 14A after it was bisected close to the tumor implantation site and stained for human nuclear antigen (green) and total DNA (blue) to outline the positioning of the cells. The red peptide signal is visible on cells immediately adjacent to the main tumor mass as well as spread diffusely in the surrounding tissue.
# [3] = tested on: BTIC lines (neurospheres); assay: Staining with biotin-labeled synthetic peptide, confocal, BTIC neurospheres; format: binding, human; conditions: neurospheres stained in suspension
# Description: (§2) Binding specificity of the 7A peptide was assessed with non-target (U87MG; NSC) and target (BTIC) cells using a biotinylated 7A peptide (red) followed by confocal imaging.
# (§3) To confirm the preferential binding of 7A to the BTICs rather than the cells used for subtraction, neurospheres and U87MG cells were stained in suspension with biotin-labeled synthetic peptide. […] Examination of the interaction of all selected peptides across a panel of BTIC lines underscored the heterogeneity within each cell population, and established a platform for correlating the ability to bind particular peptide sequences with either cell behavior or patient outcome.
# (§4) Adherent cells: 13 mm coverslips were coated with neutralized 3 mg/mL Collagen I (PureCol), allowed to dry, then plated with test cells at 1×10^4/mL, 0.5 mL volume and allowed to equilibrate 20 minutes under normal culture conditions. Coverslips were fixed for 10 minutes in 3% formaldehyde in PBS, washed, then incubated in biotinylated peptide (3 mM stock) or primary antibody at a 1:100 dilution in 2% BSA/0.02% Tween 20 in PBS for 1 hour at room temperature. After washing in PBS, secondary antibody or streptavidin-Alexa 568 was applied at a dilution of 1:250 for 1 hour before coverslips were washed and mounted with DAKO mounting media with antifade. […]
# U87MG cells = assay: Staining with biotin-labeled synthetic peptide, confocal, U87MG; format: binding, human
# Description: as §2, §3, §4
# normal stem cells (NSC) = assay: Staining with biotin-labeled synthetic peptide, confocal, normal stem cells; format: binding; conditions: not tumorigenic cells
# Description: as §2, §3
# Suspended neurospheres: 50 μL of densely suspended neurospheres were stained as described above, except in suspension in an eppendorf tube. The stained neurospheres were mounted in a drop of DAKO mounting media under a coverslip.
# [4] = tested on: BTIC 12 and BTIC 25 xenografts; assay: In vivo phage homing, BTIC xenografts, anti-phage immunohistochemistry; parameters: species or system SCID mice; conditions: phage perfused 10 minutes
# Description: (§5) Cells were injected into the right brain hemisphere of SCID mice and allowed to establish for three months. Mice were then perfused with 7A or A1 (random control) phage for 10 minutes. […] 7A homing was not observed in mice bearing tumors generated from the U251N cell line.
# (§6) 3×10^4 U87T cells, 3×10^5 U87R cells or 5×10^4 BTICs were injected in a 3 μL volume into one brain hemisphere of a SCID mouse and allowed to grow for 4, 6 or 12 weeks respectively. The mice were anaesthetized, then treated with 150 μL of 20% (w/v) mannitol for 15 minutes before injecting 5×10^9 pfu into the brain via the carotid. After allowing the phage to circulate for 10 minutes, unbound phage were flushed out of the circulatory system with 15 mL of PBS injected into the left ventricle after the right atrium was clipped. The brains were harvested, immediately frozen on dry ice and embedded in OCT for sectioning.
# (§7) Serial sections were fixed with cold acetone, and rehydrated through an ethanol gradient. Endogenous peroxidases in the sections were inactivated with 0.075% H2O2/methanol, and nonspecific binding was blocked with 10% normal goat serum in PBS. […] Avidin-biotin peroxidase complexes were then formed using the VECTASTAIN Elite ABC kit (Vector Laboratories) and detected by addition of […] […]
# [5] = tested on: U251N human glioblastoma line xenografts; assay: In vivo phage homing, U251N xenografts; parameters: species or system SCID mice; conditions: phage perfused, anti-phage immunohistochemistry
# Description: as §5, §6, §7
# U87R (HIGC) cells = assay: Peptide binding to U87R cells; parameters: species or system human
# U87T (main tumor) cells = assay: Peptide binding to U87T cells; parameters: species or system human
# [6] = tested on: implanted GBM tumor from the U87MG cell line; assay: In vivo targeting of fluorescent peptide to implanted U87MG tumor, fluorescence microscopy of brain sections; parameters: species or system mice
# Description: as §1
# FIGS. 18A and 18B-18D show similar views, where the animal was injected with a fluorescently labeled modified H10 peptide (SEQ ID NO: 17, preferential for HIGC binding), in animals carrying a tumor initiated with the U87MG human glioblastoma cell line. For these studies, the tumors were not grown as large, and a far-red fluorescent signal is not obvious from inspection without sectioning (FIG. 18A).
# FIGS. 19A and 19B and 19D show similar views, where the animal was injected with a fluorescently labeled modified E10 peptide (SEQ ID NO: 13, which binds to both BTIC's and HIGC's), in animals carrying a tumor initiated with the U87MG human glioblastoma cell line. […]
# [7] = tested on: U87MG cells transfected with p75^NTR; assay: Transwell migration assay, p75NTR-transfected U87MG; format: cell-based, human; conditions: in vitro invasion assay
# Description: The membranes of 8 μm pore sized transwell inserts (Corning Costar) were coated with brain-like matrix (720 μL of 3 mg/mL collagen I (PureCol); 180 μL of 10×DMEM (Invitrogen); 9 uL of 1 mg/mL human plasma fibronectin (Sigma); 9 uL of 1 mg/mL chondroitin sulfate proteoglycans (Chemicon); 16 μL of 0.15 mg/mL laminin (Chemicon)) on both sides, allowed to dry, then plated with 5×10^4 cells in 100 μL media in the upper chamber and 500 μL media in the lower chamber. Inclusion of collagen was essential to see the inhibitory effect of H10 (FIG. S4). 3×10^10 pfu of test phage were added to the upper chambers containing the cells, which were incubated for 4 hours under normal culture conditions. At the end of the incubation, the media was aspirated and the cells were fixed and stained in 1% crystal violet in 95% ethanol for one minute. Transwells were rinsed in PBS, then cells on the upper membrane surfaces were removed with a cotton swab. Cells which had migrated to the undersurface of the membranes were counted by light microscopy, and the sum of cells in five microscopic fields was recorded for each membrane.
substance,measurement,setting,value
CIQLANPPRLXG [M23],number cell-binding phages containing that sequence,U87R cells,2/100
EHMALTYPFRPP (synthetic HIGC targeting peptide) [C12],number cell-binding phages containing that sequence,U87R cells,13/100
GISLSSYLQSTQ (synthetic HIGC targeting peptide) [M32],number cell-binding phages containing that sequence,U87R cells,20/100
GMSLSRQMLWSL (synthetic HIGC targeting peptide) [F2],number cell-binding phages containing that sequence,U87R cells,2/100
HLFPQSNYGGHS (synthetic HIGC targeting peptide) [M24],number cell-binding phages containing that sequence,U87R cells,2/100
HWAPSMYDYVSW (synthetic HIGC targeting peptide) [M5],number cell-binding phages containing that sequence,U87R cells,7/100
IRSIRMRRILIL (synthetic BTIC targeting peptide) [C1],number of phage subclones containing that sequence,[1],2/50
KTSMRPLILIHI (synthetic BTIC targeting peptide) [3B],distribution of fluorescent peptide signal in brain sections,[2]; intracarotid injection,binds to cells that are both within and outside the main tumor mass
same,localization of peptide conjugate in human GBM tissue in vivo (summary),[2],can localize in human GBM tissue in vivo
same,number of phage subclones containing that sequence,[1],2/50
PSPHRQRQHILR (synthetic BTIC targeting peptide) [7A],binding of peptide to BTICs,[3],high percentage of positive cells within the neurosphere
same,binding of peptide to U87MG cells,U87MG cells,predominantly negative
same,binding of peptide to normal stem cells,normal stem cells (NSC),predominantly negative
same,in vivo phage staining of BTIC xenografts,[4],only a subset of cells within the main tumor masses of BTIC 12 and 25 showed positive staining
same,in vivo phage staining of U251N xenografts,[5],no staining was detected
same,distribution of fluorescent peptide signal in brain sections,[2]; intracarotid injection,binds primarily to cells that are diffusely spread outside the main tumor mass
same,fluorescent signal in whole brain imaging of tumor,"[2]; intracarotid injection, approximately half an hour circulation, Olympus OV100","appears strongly in part of the tumor, but clearly does not detect all tumor cells present"
same,localization of peptide conjugate in human GBM tissue in vivo (summary),[2],can localize in human GBM tissue in vivo
same,number of phage subclones containing that sequence,[1],25/50
QTIRIIIRRSRT (synthetic BTIC targeting peptide) [10C],number of phage subclones containing that sequence,[1],6/50
RTVPDYTAHVRT (synthetic HIGC targeting peptide) [M43],number cell-binding phages containing that sequence,U87R cells,5/100
SGHQLLLNKMPN (synthetic HIGC targeting peptide) [M19],number cell-binding phages containing that sequence,U87R cells,4/100
SLHMRHKRKPRR (synthetic BTIC targeting peptide) [E10],binding of peptide to BTICs,[3],binds
same,binding of peptide to U87MG cells,U87MG cells,binds
same,binding to U87R (HIGC) cells,U87R (HIGC) cells,bind
same,binding to U87T (main tumor) cells,U87T (main tumor) cells,bind
same,distribution of fluorescent peptide signal in brain sections,[6]; intracarotid injection,binds to a portion of cells within the main tumor mass; also recorded: also binds to cells outside of the main tumor mass
same,localization of peptide conjugate in human GBM tissue in vivo (summary),[6]; intravenous administration,can localize in human GBM tissue in vivo
same,number of phage subclones containing that sequence,[1],4/50
SSRSMQRTLIIS (synthetic BTIC targeting peptide) [3F],distribution of fluorescent peptide signal in brain sections,[2]; intracarotid injection,most of the red signal appears outside of the main tumor mass
same,localization of peptide conjugate in human GBM tissue in vivo (summary),[2],can localize in human GBM tissue in vivo
same,number of phage subclones containing that sequence,[1],2/50
SVSVGMKPSPRP (synthetic HIGC targeting peptide) [A2],number cell-binding phages containing that sequence,U87R cells,21/100
methyl-β-cyclodextran,cell migration of U87p75 glioma cells,[7],significantly inhibited cell migration

# Reference: patent US9095541B2, “Brain tumor targeting peptides and methods” (Arch Cancer Therapeutics, Inc., priority 2009, dated 2015)
